The text below walks through data of US20240376378A1, “COLORANT FOR FLUORESCENT LABELING AND FLUORESCENT LABELING AGENT” (artience Co., Ltd., priority 2021, published 2024).

Data set [1] concerns Hela cells. The data set is described as follows: Evaluation of cell staining: fluorescence intensity by plate reader. Type of data set: cell-based. The following applies: 1 μM colorant, 1 hour, washed, plate reader 780 to 800 nm. On the procedure:
Each colorant solution was diluted 20-fold with an Eagle's minimum essential medium (commercially available from FUJIFILM Wako Pure Chemical Corporation) to prepare a fluorescent labeling agent containing 1 μM of the colorant for fluorescent labeling.
Hela cells were seeded in a 96-well plate (1×10^4 cells/well), and cultured in an incubator (37° C., 5% CO2-containing Air, humidified environment) for 48 hours using an Eagle's minimum essential medium (commercially available from FUJIFILM Wako Pure Chemical Corporation) containing 10% Fetal Bovine Serum (FBS) and 1% penicillin-streptomycin. Then, the medium was removed, and the fluorescent labeling agent prepared above was added to each well. The sample was left in an incubator for 1 hour, and then washed with the Eagle's minimum essential medium (commercially available from FUJIFILM Wako Pure Chemical Corporation). Using a plate reader (SPARK, commercially available from Tecan Group Ltd.), the fluorescence intensity was measured in a range of 780 to 800 nm, and evaluated based on the following criteria. […] The evaluation results are shown in “fluorescence intensity during cell staining” in Table 8.
• 4: fluorescence intensity measurement value 2,000 or more • 3: fluorescence intensity measurement value less than 2,000 to 1,000 or more • 2: fluorescence intensity measurement value less than 1,000 to 500 or more • 1: fluorescence intensity measurement value less than 500

Data set [2] is described as follows: Measurement of average particle size (Z average, dynamic light scattering) of colorant dispersed component in PBS dispersion. The data set is classed as physicochemical. Particulars: 20 μM DMSO colorant solution diluted 10-fold with PBS to 2 μM, measured within 5 minutes. The procedure: The average particle size of the colorant dispersed component contained in the colorant dispersion I can be measured as follows.
A colorant solution is obtained by dissolving a colorant for fluorescent labeling in an organic solvent that can dissolve the colorant for fluorescent labeling so that the concentration is 20 μM. The colorant solution is diluted 10-fold with PBS and mixed to prepare a colorant dispersion I with a concentration of 2 μM.
Here, the method of mixing the colorant solution and the PBS is not particularly limited, and for example, a method of adding a colorant solution to PBS is preferable. Mixing may be performed separately in a plurality of steps. The method of mixing a colorant solution and PBS is not particularly limited, and a method that can quickly achieve a uniform mixing state is desirable. As an example of the mixing method, mixing can be performed by well-known methods such as stirring with a stirrer, pipetting with a pipette, and using a Vortex mixer. The colorant dispersion I can be obtained, for example, by diluting a colorant solution 10-fold with PBS at 25° C. and mixing by pipetting 10 times or more.
The particle size distribution of the colorant dispersion I obtained as above is measured using a particle size distribution measuring device (Zetasizer Nano ZSP, commercially available from Spectris). It is preferable to measure the average particle size under conditions at 25° C. It is desirable to measure the average particle size within 5 minutes after the colorant dispersion I is prepared.
As the value of the average particle size, values such as a Z average particle size, a number average particle size, a volume average particle size, and an area average particle size can be used. In the present invention, the Z average particle size measured by a dynamic light scattering method is defined as the average particle size of the colorant dispersed component contained in the colorant dispersion I.
After each colorant solution was diluted 10-fold with phosphate buffered saline (PBS) to obtain a colorant dispersion I with a colorant concentration of 2 μM, measurement was performed immediately (within 5 minutes) using a particle size distribution measuring device (Zetasizer Nano ZSP, commercially available from Spectris). The Z average particle size of the colorant fine particles (the colorant dispersed component in the colorant dispersion I) of each colorant for fluorescent labeling was determined based on the following criteria. The determination results are shown in “average particle size” in Table 8.
• 4: Z average particle size 5 nm or more to less than 100 nm • 3: Z average particle size 100 nm or more to less than 300 nm • 2: Z average particle size 300 nm or more to 500 nm or less • 1: Z average particle size more than 500 nm

Data set [3] can be described thus: Measurement of absorbance retention (A1 in PBS / A0 in dimethyl sulfoxide). Type of data set: physicochemical. Particulars: A1/A0 at maximum-absorption wavelength; 2 μM in PBS vs 2 μM in dimethyl sulfoxide, within 5 minutes. The procedure:
The absorbance retention calculated by Formula (I) is calculated as follows.
A colorant solution I is prepared by dissolving the colorant for fluorescent labeling in a soluble organic solvent so that the concentration is 2 μM. The absorption spectrum of the colorant solution I is measured using a spectrophotometer (U-4100, commercially available from Hitachi High-Tech Corporation), and the absorbance A0 at a maximum-absorption wavelength is determined.
In addition, a colorant dispersion II is prepared by dissolving the colorant for fluorescent labeling in a soluble organic solvent so that the concentration is 20 μM, and this is additionally diluted 10-fold with PBS so that the concentration is 2 μM. The absorption spectrum of the colorant dispersion II is measured using a spectrophotometer (U-4100, commercially available from Hitachi High-Tech Corporation), and the absorbance A1 at a maximum-absorption wavelength is determined. It is preferable to measure the absorbance under conditions at 25° C. In addition, it is desirable to measure the absorbance within 5 minutes after the […] is prepared. The colorant dispersion II can be obtained, for example, by diluting a colorant solution 10-fold with PBS at 25° C. and mixing by pipetting 10 times or more.
After each colorant solution was diluted 10-fold with dimethyl sulfoxide to obtain a colorant solution I with a colorant concentration of 2 μM, the absorption spectrum was measured using a spectrophotometer (U-4100, commercially available from Hitachi High-Tech Corporation), and the absorbance A0 at a maximum-absorption wavelength was obtained. In addition, after each colorant solution was diluted 10-fold with phosphate buffered saline (PBS) to obtain a colorant dispersion II with a colorant concentration of 2 μM, the absorption spectrum was measured immediately (within 5 minutes) using the spectrophotometer, and the absorbance A1 at a maximum-absorption wavelength was obtained. Using the obtained values of A0 and A1, the absorbance retention was calculated from Formula (I), and determined based on the following criteria.
• 4: absorbance retention 0.8 or more • 3: absorbance retention less than 0.8 to 0.5 or more • 2: absorbance retention less than 0.5 to 0.3 or more • 1: absorbance retention less than 0.3

Consider “Aluminum 1, 8, 15, 22-tetrakis(phenylthio)-29H, 31H-phthalocyanine chloride [Comparative compound 3]”, for which, in data set [1], the “Fluorescence intensity during cell staining” value is 1 (fluorescence intensity measurement value less than 500). Moreover, the Average particle size in data set [2] was 1 (Z average particle size more than 500 nm). The Absorbance retention in data set [3] is given as 1 (absorbance retention less than 0.3).
Turning to `O=P(O)(O)CCOc1ccc(-c2cc3c(o2)=CC2=C(C(F)(F)F)c4cc5oc(-c6ccc(OCCP(=O)(O)O)cc6)cc5n4[B-](F)(F)[N+]=32)cc1` [Colorant for fluorescent labeling 24], the “Fluorescence intensity during cell staining” value in data set [1] is 4 (fluorescence intensity measurement value 2,000 or more). The Average particle size in data set [2] is 3 (Z average particle size 100 nm or more to less than 300 nm). Further, the Absorbance retention in data set [3] was 4 (absorbance retention 0.8 or more).
In the same order, the values of `O=C(O)CCOc1ccc(-c2cc3c(o2)=CC2=C(C(F)(F)F)c4cc5oc(-c6ccc(OCCC(=O)O)cc6)cc5n4[B-](F)(F)[N+]=32)cc1` [Colorant for fluorescent labeling 23] are 4 (fluorescence intensity measurement value 2,000 or more), 3 (Z average particle size 100 nm or more to less than 300 nm) and 4 (absorbance retention 0.8 or more).
For the compound `CCCCCCCCCCCCCCCCCCN1/C(=C/C=C/C=C/C=C/C2=[N+](CCCCCCCCCCCCCCCCCC)c3ccccc3C2(C)C)C(C)(C)c2ccccc21.[I-]` [Comparative compound 6], in data set [1], the “Fluorescence intensity during cell staining” value is 1 (fluorescence intensity measurement value less than 500). Also, in data set [2], the Average particle size is 2 (Z average particle size 300 nm or more to 500 nm or less). In data set [3], the Absorbance retention is recorded as 2 (absorbance retention less than 0.5 to 0.3 or more).
